Laboratory results: ChEMBL document CHEMBL1154380, “Lipocarbazoles, secondary metabolites from Tsukamurella pseudospumae Acta 1857 with antioxidative activity” (J Nat Prod, 2009)
Calls of active or inactive are those of the source. No cut-off for these calls is given here.

Key:
[1] = system: Radical scavenging activity; assay: Antioxidant activity assessed as DPPH radical scavenging activity after 30 mins; format: functional
[2] = system: Paenarthrobacter aurescens; assay: Antibacterial activity against Arthrobacter aurescens DSM 20166 at 1 mg/ml after 24 hrs by disk diffusion assay; format: functional, organism-based
Proteus mirabilis = assay: Antibacterial activity against Proteus mirabilis ATCC 35501 at 1 mg/ml after 24 hrs by disk diffusion assay; format: functional, organism-based
Bacillus subtilis = assay: Antibacterial activity against Bacillus subtilis DSM 10 at 1 mg/ml after 24 hrs by disk diffusion assay; format: functional, organism-based
Penicillium chrysogenum = assay: Antifungal activity against Penicillium notatum Tu 136 at 1 mg/ml after 48 hrs by disk diffusion assay; format: functional, organism-based
Brevibacillus brevis = assay: Antibacterial activity against Brevibacillus brevis DSM 30 at 1 mg/ml after 24 hrs by disk diffusion assay; format: functional, organism-based
Pseudomonas fluorescens = assay: Antibacterial activity against Pseudomonas fluorescens DSM 50090 at 1 mg/ml after 24 hrs by disk diffusion assay; format: functional, organism-based
Escherichia coli = assay: Antibacterial activity against Escherichia coli K-12 at 1 mg/ml after 24 hrs by disk diffusion assay; format: functional, organism-based
Candida albicans = assay: Antifungal activity against Candida albicans Tu 164 at 1 mg/ml after 48 hrs by disk diffusion assay; format: functional, organism-based
Botrytis cinerea = assay: Antifungal activity against Botrytis cinerea Tu 157 at 1 mg/ml after 48 hrs by disk diffusion assay; format: functional, organism-based
Saccharomyces cerevisiae = assay: Antifungal activity against Saccharomyces cerevisiae ATCC 9080 at 1 mg/ml after 48 hrs by disk diffusion assay; format: functional, organism-based
[3] = system: Streptomyces viridochromogenes; assay: Antibacterial activity against Streptomyces viridochromogenes Tu 57 at 1 mg/ml after 24 hrs by disk diffusion assay; format: functional, organism-based
Staphylococcus aureus = assay: Antibacterial activity against Staphylococcus aureus DSM 20231 at 1 mg/ml after 24 hrs by disk diffusion assay; format: functional, organism-based

How did the IC50 [1] turn out when `O=C1O[C@H]([C@@H](O)CO)C(O)=C1O` [ASCORBIC ACID] was run?
Its IC50 is 13.4 µM.

Which Activity [2] does the source give for `CCCCCCCC/C=C\CCCCCCCc1c(C)c(O)cc2c1[nH]c1ccccc12` [LIPOCARBAZOLE A3] here?
The Activity was “inactive”.

And the IC50 [1]?
Its IC50 is 8.7 µM.

And the Activity (Proteus mirabilis)?
Its Activity is “inactive”.

And the Activity (Bacillus subtilis)?
The Activity was “inactive”.

What about the Activity (Penicillium chrysogenum) of the same compound?
The Activity was “inactive”.

And the Activity (Brevibacillus brevis)?
The Activity was “inactive”.

What about the Activity (Pseudomonas fluorescens) of the same compound?
The Activity was “inactive”.

What about the Activity (Escherichia coli) of the same compound?
The Activity was “inactive”.

What about the Activity (Candida albicans) of the same compound?
Its Activity is “inactive”.

And the Activity (Botrytis cinerea)?
The Activity was “inactive”.

And the Activity (Saccharomyces cerevisiae)?
The Activity was “inactive”.

What about the Activity [3] of the same compound?
The Activity was “inactive”.

What about the Activity (Staphylococcus aureus) of the same compound?
Its Activity is “inactive”.

`CCCOC(=O)c1cc(O)c(O)c(O)c1` [PROPYL GALLATE] was tested. Which IC50 [1] did it give?
Its IC50 is 4.4 µM.

Which Activity [2] does the source give for `CC/C=C\C/C=C\C/C=C\CCCCCCCc1c(C)c(O)cc2c1[nH]c1ccccc12` here?
The Activity was “inactive”.

What about the Activity (Proteus mirabilis) of the same compound?
Its Activity is “inactive”.

What about the Activity (Bacillus subtilis) of the same compound?
The Activity was “inactive”.

And the Activity (Penicillium chrysogenum)?
Its Activity is “inactive”.

What about the Activity (Brevibacillus brevis) of the same compound?
The Activity was “inactive”.

And the Activity (Pseudomonas fluorescens)?
The Activity was “inactive”.

What about the Activity (Escherichia coli) of the same compound?
The Activity was “inactive”.

And the Activity (Candida albicans)?
The Activity was “inactive”.

And the Activity (Botrytis cinerea)?
Its Activity is “inactive”.

And the Activity (Saccharomyces cerevisiae)?
Its Activity is “inactive”.

What about the Activity [3] of the same compound?
Its Activity is “inactive”.

And the Activity (Staphylococcus aureus)?
Its Activity is “inactive”.

`CCCCCCCCCCCCCCCCCc1c(C)c(O)cc2c1[nH]c1ccccc12` was tested. Which Activity [2] did it give?
The Activity was “inactive”.

What about the IC50 [1] of the same compound?
The IC50 was 10.5 µM.

And the Activity (Proteus mirabilis)?
Its Activity is “inactive”.

What about the Activity (Bacillus subtilis) of the same compound?
Its Activity is “inactive”.

And the Activity (Penicillium chrysogenum)?
The Activity was “inactive”.

And the Activity (Brevibacillus brevis)?
The Activity was “inactive”.

And the Activity (Pseudomonas fluorescens)?
Its Activity is “inactive”.

What about the Activity (Escherichia coli) of the same compound?
Its Activity is “inactive”.

What about the Activity (Candida albicans) of the same compound?
The Activity was “inactive”.

And the Activity (Botrytis cinerea)?
The Activity was “inactive”.

And the Activity (Saccharomyces cerevisiae)?
The Activity was “inactive”.

What about the Activity [3] of the same compound?
Its Activity is “inactive”.

What about the Activity (Staphylococcus aureus) of the same compound?
The Activity was “inactive”.

For `CCCCC/C=C\C/C=C\CCCCCCCc1c(C)c(O)cc2c1[nH]c1ccccc12`, which Activity [2] is on record?
The Activity was “inactive”.

What about the Activity (Proteus mirabilis) of the same compound?
The Activity was “inactive”.

And the Activity (Bacillus subtilis)?
Its Activity is “inactive”.

What about the Activity (Penicillium chrysogenum) of the same compound?
Its Activity is “inactive”.

And the Activity (Brevibacillus brevis)?
The Activity was “inactive”.

And the Activity (Pseudomonas fluorescens)?
Its Activity is “inactive”.

What about the Activity (Escherichia coli) of the same compound?
Its Activity is “inactive”.

What about the Activity (Candida albicans) of the same compound?
Its Activity is “inactive”.

And the Activity (Botrytis cinerea)?
Its Activity is “inactive”.

And the Activity (Saccharomyces cerevisiae)?
The Activity was “inactive”.

What about the Activity [3] of the same compound?
The Activity was “inactive”.

What about the Activity (Staphylococcus aureus) of the same compound?
The Activity was “inactive”.
